From ChEMBL document CHEMBL6087472, “Development and Discovery of a Selective Degrader of Casein Kinases 1 δ/ε” (J Med Chem, 2025)
Activity calls are given as the source filed them. The calls are words filed in the database; no cut-off is given here.

Columns and labels:
[1] = target: T1, von Hippel-Lindau disease tumor suppressor/Casein kinase I isoform delta (Homo sapiens, UniProt P48730+P40337); test: PROTAC activity at VHL/Hibit-fused CK1 delta in human MV4-11 cells assessed as degradation of CK1-delta incubated for 6 hrs by Nano-Glo HiBiT assay; type: cell-based
Target sequence in this assay (P48730 whole entry, the tested form may be a part, canonical isoform): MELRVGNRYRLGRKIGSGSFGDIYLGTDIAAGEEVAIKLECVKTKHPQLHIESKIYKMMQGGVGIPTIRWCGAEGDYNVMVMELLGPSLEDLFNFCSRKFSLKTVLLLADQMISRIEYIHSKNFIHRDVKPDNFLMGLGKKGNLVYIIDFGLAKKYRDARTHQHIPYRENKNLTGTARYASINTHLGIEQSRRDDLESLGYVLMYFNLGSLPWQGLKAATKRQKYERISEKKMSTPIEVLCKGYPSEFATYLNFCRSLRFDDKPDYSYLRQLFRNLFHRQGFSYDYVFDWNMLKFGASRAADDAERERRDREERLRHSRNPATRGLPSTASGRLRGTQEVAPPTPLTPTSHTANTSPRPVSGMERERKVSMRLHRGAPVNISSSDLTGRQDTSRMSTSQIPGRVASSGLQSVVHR
Target sequence in this assay (P40337 whole entry, the tested form may be a part, canonical isoform): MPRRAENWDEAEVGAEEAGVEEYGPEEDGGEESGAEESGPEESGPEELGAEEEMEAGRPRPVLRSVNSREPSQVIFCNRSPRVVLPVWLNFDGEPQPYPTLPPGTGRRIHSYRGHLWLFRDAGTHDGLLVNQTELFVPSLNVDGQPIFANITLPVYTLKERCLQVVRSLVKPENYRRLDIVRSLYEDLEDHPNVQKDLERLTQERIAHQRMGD

[2] = target: T2, von Hippel-Lindau disease tumor suppressor/Casein kinase I isoform alpha (Homo sapiens) (UniProt P48729+P40337); test: PROTAC activity at VHL/CK1 alpha in human MV4-11 cells assessed as induction of degradation of CK1 alpha measured after 1 hrs by HiBit assay; type: cell-based; conditions: dose 0.625-10 µM
T2 sequence (P40337 whole entry, looked up, canonical isoform): as the sequence (P40337 whole entry, the tested form may be a part, canonical isoform) above
T2 sequence (P48729 whole entry, looked up, canonical isoform): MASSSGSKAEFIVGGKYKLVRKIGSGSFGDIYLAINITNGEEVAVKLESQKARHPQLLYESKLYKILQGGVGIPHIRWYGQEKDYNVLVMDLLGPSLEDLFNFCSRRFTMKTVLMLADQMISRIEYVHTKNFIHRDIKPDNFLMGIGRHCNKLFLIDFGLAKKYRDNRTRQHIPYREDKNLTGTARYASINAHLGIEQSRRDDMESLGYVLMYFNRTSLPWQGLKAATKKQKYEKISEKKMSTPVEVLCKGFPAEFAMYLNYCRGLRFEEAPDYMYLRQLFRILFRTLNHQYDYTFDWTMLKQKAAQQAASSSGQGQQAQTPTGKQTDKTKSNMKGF

[3] = target: T3, von Hippel-Lindau disease tumor suppressor/Casein kinase I isoform epsilon (Homo sapiens) (UniProt P49674+P40337); test: PROTAC activity at VHL/CK1 epsilon in HEK293 cells assessed as induction of degradation of CK1 epsilon at 3 uM measured after 6 hrs by Western blot analysis relative to control; type: cell-based
T3 sequence (P40337 whole entry, looked up, the tested form may be a part, canonical isoform): as the sequence (P40337 whole entry, the tested form may be a part, canonical isoform) above
T3 sequence (P49674 whole entry, looked up, the tested form may be a part, canonical isoform): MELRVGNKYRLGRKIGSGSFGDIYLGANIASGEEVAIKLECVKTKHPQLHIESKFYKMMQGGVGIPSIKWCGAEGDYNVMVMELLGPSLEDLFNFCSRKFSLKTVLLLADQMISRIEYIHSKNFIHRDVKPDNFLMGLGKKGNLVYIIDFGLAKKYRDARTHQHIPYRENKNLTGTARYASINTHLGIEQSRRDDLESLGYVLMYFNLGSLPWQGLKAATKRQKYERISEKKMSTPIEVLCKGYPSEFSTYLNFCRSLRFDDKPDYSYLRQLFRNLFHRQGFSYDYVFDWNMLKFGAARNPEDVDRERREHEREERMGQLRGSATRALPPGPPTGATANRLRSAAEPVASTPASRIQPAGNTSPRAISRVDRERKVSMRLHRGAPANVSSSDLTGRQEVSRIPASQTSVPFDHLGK

[4] = target: T1, von Hippel-Lindau disease tumor suppressor/Casein kinase I isoform delta; test: PROTAC activity at VHL/Hibit-fused CK1 delta in human MV4-11 cells assessed as half life at 2.5 uM measured upto 12 hrs in presence of cycloheximide by Nano-Glo HiBiT assay (reference value: 3 hrs); type: cell-based
Target sequence in this assay (P40337 whole entry, looked up, the tested form may be a part, canonical isoform): as the sequence (P40337 whole entry, the tested form may be a part, canonical isoform) above
Target sequence in this assay (P48730 whole entry, looked up, the tested form may be a part, canonical isoform): as the sequence (P48730 whole entry, the tested form may be a part, canonical isoform) above

[5] = target: T1, von Hippel-Lindau disease tumor suppressor/Casein kinase I isoform delta; test: PROTAC activity at VHL/CK1 delta in human MV4-11 cells assessed as induction of degradation of CK1 delta by measuring maximum efficacy at 0.625 to 10 uM measured after 9 hrs by HiBit assay relative to control; type: cell-based; conditions: dose 0.625-10 µM
Target sequence in this assay (P40337 whole entry, looked up, the tested form may be a part, canonical isoform): as the sequence (P40337 whole entry, the tested form may be a part, canonical isoform) above
Target sequence in this assay (P48730 whole entry, looked up, the tested form may be a part, canonical isoform): as the sequence (P48730 whole entry, the tested form may be a part, canonical isoform) above

[6] = target: T1, von Hippel-Lindau disease tumor suppressor/Casein kinase I isoform delta; test: PROTAC activity at VHL/Hibit-fused CK1 delta in human MV4-11 cells assessed as degradation of CK1 delta at 5 to 10 uM incubated for 6 hrs by Western blot analysis; type: cell-based; conditions: dose 5-10 µM
Target sequence in this assay (P40337 whole entry, looked up, the tested form may be a part, canonical isoform): as the sequence (P40337 whole entry, the tested form may be a part, canonical isoform) above
Target sequence in this assay (P48730 whole entry, looked up, the tested form may be a part, canonical isoform): as the sequence (P48730 whole entry, the tested form may be a part, canonical isoform) above

[7] = target: T2, von Hippel-Lindau disease tumor suppressor/Casein kinase I isoform alpha (Homo sapiens); test: PROTAC activity at VHL/CK1 alpha (unknown origin) endogenously expressed in HEK293 cells assessed as degradation of CK1-alpha at 10 to 30 uM incubated for 6 hrs by Western blot analysis; type: cell-based; conditions: dose 10-30 µM
[8] = target: T1, von Hippel-Lindau disease tumor suppressor/Casein kinase I isoform delta; test: PROTAC activity at VHL/CK1 delta in HEK293 cells assessed as induction of degradation of CK1 delta at 3 uM measured after 1 hrs by Western blot analysis; type: cell-based
Target sequence in this assay (P40337 whole entry, looked up, the tested form may be a part, canonical isoform): as the sequence (P40337 whole entry, the tested form may be a part, canonical isoform) above
Target sequence in this assay (P48730 whole entry, looked up, the tested form may be a part, canonical isoform): as the sequence (P48730 whole entry, the tested form may be a part, canonical isoform) above

[9] = target: T3, von Hippel-Lindau disease tumor suppressor/Casein kinase I isoform epsilon (Homo sapiens); test: PROTAC activity at VHL/CK1 epsilon in human MV4-11 cells assessed as degradation of CK1 epsilon at 5 to 10 uM incubated for 6 hrs by Western blot analysis; type: cell-based; conditions: dose 5-10 µM
[10] = target: T1, von Hippel-Lindau disease tumor suppressor/Casein kinase I isoform delta; test: PROTAC activity at VHL/HiBit fused CK1 delta in human MV4-11 cells assessed as fold change at 10 uM measured after 6 hrs in presence of 10 uM of MU1742 by Nano-Glo HiBit assay; type: cell-based
Target sequence in this assay (P40337 whole entry, looked up, the tested form may be a part, canonical isoform): as the sequence (P40337 whole entry, the tested form may be a part, canonical isoform) above
Target sequence in this assay (P48730 whole entry, looked up, the tested form may be a part, canonical isoform): as the sequence (P48730 whole entry, the tested form may be a part, canonical isoform) above

[11] = target: T1, von Hippel-Lindau disease tumor suppressor/Casein kinase I isoform delta; test: PROTAC activity at VHL/Hibit-fused CK1 delta in human MV4-11 cells assessed as degradation of CK1-delta incubated for 6 hrs by Nano-Glo HiBiT assay relative to control; type: cell-based
Target sequence in this assay (P40337 whole entry, looked up, the tested form may be a part, canonical isoform): as the sequence (P40337 whole entry, the tested form may be a part, canonical isoform) above
Target sequence in this assay (P48730 whole entry, looked up, the tested form may be a part, canonical isoform): as the sequence (P48730 whole entry, the tested form may be a part, canonical isoform) above

[12] = target: T3, von Hippel-Lindau disease tumor suppressor/Casein kinase I isoform epsilon (Homo sapiens); test: PROTAC activity at VHL/CK1 epsilon in human HEK293 cells at 0.625 to 10 uM in presence of MU1742 by Western blot analysis; type: cell-based; conditions: dose 0.625-10 µM
[13] = target: T2, von Hippel-Lindau disease tumor suppressor/Casein kinase I isoform alpha (Homo sapiens); test: PROTAC activity at VHL/CK1 alpha in human MDA-MB-231 cells assessed as induction of degradation of CK1 alpha at 1 uM measured after 6 hrs; type: cell-based
[14] = target: T1, von Hippel-Lindau disease tumor suppressor/Casein kinase I isoform delta; test: PROTAC activity at VHL/CK1 delta in HEK293 cells assessed as induction of degradation of CK1 delta at upto 20 uM pretreated with LGK974 followed by compound addition and measured after 6 hrs by Western blot analysis; type: cell-based
[15] = target: T1, von Hippel-Lindau disease tumor suppressor/Casein kinase I isoform delta; test: PROTAC activity at VHL/CK1 delta in human HEK293 cells at 0.625 to 10 uM in presence of MU1742 by Western blot analysis; type: cell-based; conditions: dose 0.625-10 µM
[16] = target: T1, von Hippel-Lindau disease tumor suppressor/Casein kinase I isoform delta; test: PROTAC activity at VHL/HiBit fused CK1 delta in human MV4-11 cells assessed as fold change at 2.5 uM measured after 6 hrs in presence of 1 uM of MU1742 by Nano-Glo HiBit assay; type: cell-based
[17] = target: T1, von Hippel-Lindau disease tumor suppressor/Casein kinase I isoform delta; test: PROTAC activity at VHL/HiBit fused CK1 delta in human MV4-11 cells assessed as fold change at 2.5 uM measured after 6 hrs in presence of 10 uM of MU1742 by Nano-Glo HiBit assay; type: cell-based
[18] = target: T3, von Hippel-Lindau disease tumor suppressor/Casein kinase I isoform epsilon (Homo sapiens); test: PROTAC activity at VHL/CK1 epsilon in HEK293 cells assessed as induction of degradation of CK1 epsilon by measuring maximum efficacy at 5 to 10 uM measured after 6 hrs by Western blot analysis relative to control; type: cell-based; conditions: dose 5-10 µM
[19] = target: T1, von Hippel-Lindau disease tumor suppressor/Casein kinase I isoform delta; test: PROTAC activity at VHL/Hibit-fused CK1 delta in human MV4-11 cells assessed as degradation of CK1-delta at 10 nM incubated for 6 hrs by Nano-Glo HiBiT assay; type: cell-based
[20] = target: T3, von Hippel-Lindau disease tumor suppressor/Casein kinase I isoform epsilon (Homo sapiens); test: PROTAC activity at VHL/CK1 epsilon in human U87 cells assessed as induction of degradation of CK1 epsilon by measuring maximum efficacy at 1 uM measured after 6 hrs relative to control; type: cell-based
[21] = target: T2, von Hippel-Lindau disease tumor suppressor/Casein kinase I isoform alpha (Homo sapiens); test: PROTAC activity at VHL/CK1 alpha in human HEK293 cells at 0.625 to 10 uM in presence of MU1742 by Western blot analysis; type: cell-based; conditions: dose 0.625-10 µM
[22] = system: MV4-11; test: Cytotoxicity in human MV4-11 cells at 10 uM measured after 72 hrs by alamar blue assay; type: functional, cell-based
[23] = target: T1, von Hippel-Lindau disease tumor suppressor/Casein kinase I isoform delta; test: PROTAC activity at VHL/CK1 delta in human MDA-MB-231 cells assessed as induction of degradation of CK1 delta by measuring maximum efficacy at 1 uM measured after 6 hrs relative to control; type: cell-based
[24] = target: T2, von Hippel-Lindau disease tumor suppressor/Casein kinase I isoform alpha (Homo sapiens); test: PROTAC activity at VHL/CK1 alpha in human MV4-11 cells assessed as induction of degradation of CK1 alpha by measuring maximum efficacy at 2.5 uM measured after 12 hrs by HiBit assay relative to control; type: cell-based
[25] = target: T1, von Hippel-Lindau disease tumor suppressor/Casein kinase I isoform delta; test: PROTAC activity at VHL/HiBit fused CK1 delta in human MV4-11 cells assessed as fold change at 0.63 uM measured after 6 hrs in presence of 10 uM of MU1742 by Nano-Glo HiBit assay; type: cell-based
[26] = target: T3, von Hippel-Lindau disease tumor suppressor/Casein kinase I isoform epsilon (Homo sapiens); test: PROTAC activity at VHL/CK1 epsilon in HEK293 cells assessed as induction of degradation of CK1 epsilon at 3 uM measured after 1 hrs by Western blot analysis; type: cell-based
[27] = target: T3, von Hippel-Lindau disease tumor suppressor/Casein kinase I isoform epsilon (Homo sapiens); test: PROTAC activity at VHL/CK1 epsilon in HEK293 cells assessed as induction of degradation of CK1 epsilon at 0.3 to 1.0 uM measured after 6 hrs by Western blot analysis relative to control; type: cell-based; conditions: dose 0.3-1 µM
[28] = system: HEK293; test: Effect on VANGL2 phosphorylation in human HEK293 cells at 1 uM measured after 6 hrs by Western blot analysis; type: functional, cell-based
[29] = target: T3, von Hippel-Lindau disease tumor suppressor/Casein kinase I isoform epsilon (Homo sapiens); test: PROTAC activity at VHL/CK1 epsilon in human U87 cells assessed as induction of degradation of CK1 epsilon at 1 uM measured after 6 hrs; type: cell-based
[30] = target: T1, von Hippel-Lindau disease tumor suppressor/Casein kinase I isoform delta; test: PROTAC activity at VHL/CK1 delta in human HEK293 cells assessed as degradation of CK1-delta at 3 to 20 uM incubated overnight followed by compound washout and measured after 1 hr by Nano-Glo HiBiT assay; type: cell-based; conditions: dose 3-20 µM

DC50 [1]: 550 nM
Activity [2]: Dose-dependent-effect
Activity [3]: 100%
T1/2 [4]: 40 min
Emax [5]: 75%
Activity [6]: Active
Activity [7]: Active
Activity [8]: Active
Activity [9]: Active
fold change (FC) [10]: 1.02
Emax [11]: 70.1%
Activity [12]: inactive
Activity [13]: inactive
Activity [14]: Active
Activity [15]: inactive
fold change (FC) [16]: 0.97
fold change (FC) [17]: 1.19
Emax [18]: > 50%
Activity [19]: Active
Emax [20]: > 50%
Activity [21]: inactive
Emax [23]: 75%
Emax [24]: 20%
fold change (FC) [25]: 1.2
Activity [26]: Active
Activity [27]: 100%
Activity [29]: Active
Activity [30]: inactive
SMILES: Cc1ncsc1-c1ccc(CNC(=O)[C@H]2C[C@H](O)CN2C(=O)[C@H](NC(=O)CCCCCCC(=O)N2CCC(F)(Cn3cnc(-c4ccc(F)cn4)c3-c3ccnc4[nH]ccc34)CC2)C(C)(C)C)cc1
Activity [22]: Active; Compound Showed Milder Cytotoxic Effect
Activity [28]: Active
